The record followed here is patent publication US4138482A, “3-Cyano-N-(N,N-dimethylaminopropyl)-iminodibenzyl and salts thereof” (Hoffmann-La Roche Inc., priority 1976, dated 1979).

For series [1], the system named is serotonin re-uptake ("membrane pump"). As to the kind of experiment: Inhibition of the serotonin re-uptake in vivo (action of the "membrane pump"). Also on record: species or system rat. To be noted: for ED50: Rattus norvegicus, "membrane pump", Biochem. Pharmacol. 20, 707, 1971.
The subject of series [2] is serotonin uptake in the synaptosomes of the forebrain of rats. The experiment in a line: Inhibition of the serotonin uptake ex vivo. To be noted: for ED50: Rattus norvegicus, ip, injected intraperitoneally, serotonin uptake measured after 1 hour, rats. Format: in vivo, rat. The protocol: (§1) The uptake of serotonin in the synaptosomes of the forebrain of rats was tested according to J. Pharmacol. exp.
2. Inhibition of the serotonin uptake ex vivo
An analogous experimental procedure to that given under 1 was utilized. The test substances were, however, injected intraperitoneally; the serotonin uptake was measured after 1 hour. Untreated rats were used as the controls.

The test system of series [3] is serotonin uptake in blood platelets of the rat. As to the kind of experiment: Inhibition of the serotonin uptake in vitro (blood platelets). Format: cell-based. The protocol:
4. Inhibition of the serotonin uptake in vitro
0.5 Ml. of blood plasma was treated with different concentrations of test substance in 50 μl of physiological sodium chloride solution. After incubating at 37° C. for 5 minutes, serotonin (C^14; 0.1 μM) was added and the mixture was incubated at 37° C. for an additional 5 minutes. The serotonin concentration was determined by means of a C^14 measuring apparatus. A control experiment in which no test substance is used was also carried out.

The subject of series [4] is serotonin uptake in the synaptosomes of the forebrain of rats. As to the kind of experiment: Inhibition of the serotonin uptake in vitro (synaptosomes of the forebrain of rats). Format: biochemical, rat. To be noted: for IC50: synaptosomes of the forebrain of rats, read-out: ED50 (inhibition of 50%) of serotonin uptake in vitro. As for the experimental part:
1. Inhibition of the serotonin uptake in vitro
as §1

Series [5] concerns serotonin uptake in blood platelets of the rat. As to the kind of experiment: Inhibition of the serotonin uptake in vivo (blood platelets). The settings on record: ip; for inhibition at 5 mg/kg: Rattus norvegicus, Platelet, 5.0 mg/kg intraperitoneally twice daily over 4 days, 12 hours after last administration, read-out: Inhibition in % of the control; for Serotonin in mmol/mg. of protein: 5 mg/kg. As for the experimental part: 5. Inhibition of the serotonin uptake in vivo
Rats were given twice daily over a period of 4 days an intraperitoneal injection of 5.0 mg. of test substance per kg. and 12 hours after the last administration the rats were killed. Serotonin was determined spectrofluorimetrically as described in J. Pharmacol. exp.

A short description of the next series: Solubility. Format: physicochemical. The settings on record: free base.
The subject of series [6] is neuronal serotonin uptake. The experiment in a line: Antidepressive activity / inhibition of the neuronal serotonin uptake in animal experiments. Format: in vivo. The text has this:
The compound of formula I and its pharmaceutically acceptable acid addition salts, are therefore useful, for example, for the treatment of depressions of endogenous or exogenous origin. More specifically, they are useful as antidepressants.

Series [7] can be described thus: Anticholinergic side-effects. To be noted: for example mouth dryness, constipation, tachycardia and/or accommodation disorders.

Structures can show the parent of a compound that is named as a salt.

Regarding `CN(C)CCCN1c2ccccc2CCc2ccc(C#N)cc21` [Substance A, 3-Cyano-N-(N,N-dimethylaminopropyl)-iminodibenzyl hydrochloride], the values for the ED50 in series [1] and in series [2] were 0.7 mg/kg and 0.9 mg/kg, respectively. In addition, the “as active as substance B in times smaller doses” value in series [1] (versus known substance B, in vivo re-uptake) was 18 times; in series [2] (versus known substance B, ex vivo) it was 21 times. The “as active as substance C in times smaller doses” value in series [1] (versus known substance C, in vivo re-uptake) is listed as 9 times; in series [2] (versus known substance C, ex vivo), 2.4 times. For the same compound, the “times greater activity than substance B” value amounted to 130 times in series [3] (versus known substance B) and 52 times in series [4] (versus known substance B, synaptosomes). In addition, the “times greater activity than substance C” value in series [3] (versus known substance C) is on record as 20 times; in series [4] (versus known substance C, synaptosomes), 4.2 times. In series [4], the IC50 was found to be 1.5 nM. In addition, the inhibition at 5 mg/kg in series [5] was 61%. Further, in series [5], the “Serotonin in mmol/mg. of protein” value is recorded as 4.09 ± 1.30 mmol/mg. of protein.
With `CN(C)CCCN1c2ccccc2CCc2ccc(C#N)cc21` [3-cyano-N-(N,N-dimethylaminopropyl)-iminodibenzyl], the “solubility in organic solvents” value in the series “Solubility” (dimethylsulfoxide, dimethylformamide, chlorinated hydrocarbons (chloroform, methylene chloride), alkanols (methanol, ethanol), ether and benzene) is listed as “relatively good solubility”. Moreover, the solubility in water entry in the series “Solubility” (water) is on record as “soluble in water with relative difficulty”. In addition, in series [6], the antidepressive activity result was “strong antidepressive activity” and the “inhibition of the neuronal serotonin uptake” value is “extraordinarily strong inhibition of the neuronal serotonin uptake”. Also, in series [7], the anticholinergic side-effects result was “confined to a minimum”.
As for `CN(C)CCCN1c2ccccc2CCc2ccccc21` [Substance B, N-(N,N-Dimethylaminopropyl)-iminodibenzyl hydrochloride, reference compound], the ED50 in series [1] was found to be 12.8 mg/kg. Also, the ED50 in series [2] was found to be 19 mg/kg. Further, the IC50 in series [4] was 78 nM. For the same compound, in series [5], the inhibition at 5 mg/kg is 14% and the “Serotonin in mmol/mg. of protein” value is reported as 9.72 ± 2.12 mmol/mg. of protein.
